# Data from EP4653001A1, “TREATMENT, DIAGNOSIS AND/OR PROGNOSIS OF MITOCHONDRIAL DISEASES” (Universidad Autónoma de Madrid, priority 2024, dated 2025).
# Legend:
# [1] = test system: 143B cells; experiment: Stable isotope tracing with uniformly labeled 13C-glucose; format: cell-based
# Protocol: 1-5.0×10^6 cells were harvested on dry ice with 1 mL pre-chilled 80% HPLC-grade methanol (Fluka Analytical). The cell mixture was incubated for 15 min on dry ice prior to centrifugation at 18,000 × g for 10 min at 4°C. The supernatant was retained, and the remaining cell pellet was resuspended in 800 µL chilled 80% methanol and centrifuged. Supernatant was combined with the previous retention and was lyophilized using a SpeedVac (Thermo Fisher). Lyophilized samples were resuspended in 20 µL ultrapure water and subjected to metabolomics profiling using the AB/SCIEX 5500 QTRAP triple quadrupole instrument. Data analysis was performed using the GiTools software. […]
# Encouraged by the beneficial effects of ME1 and because ME1-dependent NADPH production is linked to intracellular malate levels, we sought to investigate the metabolic pathways and nutrients that maintain malate production upon disruption of the ETC. It is firmly believed that in cells and tissues with defective ETC function, elevated NADH/NAD+ ratio inhibits the Pyruvate dehydrogenase complex (PDC), suppressing pyruvate entry into the mitochondria and forcing its channelling towards the Lactate Dehydrogenase (LDH) in the cytosol. […] This reaction involves addition of an unlabeled carbon by IDH2 acting in reverse relative to the canonical oxidative TCA cycle. Malate M+3 also rose more than a ~2-fold in CI-inhibited cells and was likely formed after cleavage of citrate M+5 by ATP-citrate lyase (ACLY) since this induction was blunted in ACLY KO cells. […] We hypothesized that an alternative mechanism could involve pyruvate entry into the mitochondria where it can be carboxylated to OAA by the pyruvate carboxylase (PC). […] To examine the contribution of PC to malate formation in the context of ETC dysfunction, control and PC KO cells were cultured with uniformly labeled [^13C]glucose and treated either with DMSO or Piericidin. In this labeling scheme, oxidative metabolism of glucose-derived pyruvate would give rise to TCA cycle intermediates with M+2 labeling as CO2 is removed during conversion of pyruvate to acetyl-CoA by pyruvate dehydrogenase (PDH). By contrast, carbon labels are retained if pyruvate is carboxylated by PC and would generate M+3 intermediates (Figure 3A). […] Malate and aspartate M+3/M+2 ratios, which reflect the relative contribution of PC versus PDH to metabolite labeling, were ~7-fold and ~10-fold higher respectively, in cells treated with Piericidin (Figure 3B and C). […] In this regard, it is not surprising that PC activity is favoured over PDH when the ETC is defective as it is not regulated by NADH levels.
# [2] = test system: mouse cortical neurons; experiment: L-lactate release in neurons (Lactate-Glo); format: cell-based
# Protocol: (§1) Primary cultures of C57BL/6 mouse cortical neurons were prepared from embryos between embryonic days 16.5 and 17.5 and seeded onto pre-treated plates coated with Poly-L-lysine hydrobromide (500 µg/ml). We used Neurobasal medium without D-glucose and sodium pyruvate (ThermoFisher) to modulate D-glucose levels, depending on the experiment (2.5 mM, 5 mM, or 25 mM).
# L-lactate levels were measured in mouse cortical neurons using Lactate-Glo™ Assay (Promega, #J5021) following the original protocol.
# Increased lactate secretion is considered a good indicator of enhanced glycolytic rates, which is a common feature of ETC-inhibited cells as they switch from OXPHOS to glycolysis to maintain ATP levels. […] We culture 143B cells in the presence of Piericidin for 24 h and PPP activity and lactate release, as a proxy of glycolysis, were measured. As expected, lactate detection in the media was higher in CI-inhibited cells. […] Next, we wonder if in this context, glucose can be overused by glycolysis and therefore diverted away from the PPP. Diseases associated with impaired mitochondrial function negatively impact high energy demanding tissues such as the brain. As such, neurons that are highly sensitive to ETC inhibition also rely strongly on glucose metabolism. Thus, we used mouse cortical neurons to determine the rates of glycolysis and PPP as glucose levels become limiting. Control and Piericidin treated neurons where cultured in media containing supraphysiological (25 mM), physiological (5 mM) or subphysiological concentrations of glucose (2,5 mM). […] Decreased PPP activity under low glucose (2,5 mM) correlated with a rapid decline in NADPH/NADP+ levels in CI-inhibited cells. Conversely, glucose availability had no effect on ATP levels at this timepoint.
# [3] = test system: primary neurons; experiment: Neuron axon morphology (immunofluorescence); format: cell-based, mouse; conditions: CI inhibition, 100 nM 24 h, extensive axon degeneration
# Protocol: as §1
# Neuron axon morphology was quantified in primary neurons exposed to DMSO or 100 nM piericidin for 24 h. Neurons were fixed with 4% paraformaldehyde for 10 min, blocked, and permeabilized in 0.1% Triton X-100 (Tx)-PBS with 10% fetal bovine serum for 15 minutes at room temperature. Then, neurons were incubated with the primary BIII-Tubulin antibody (1:500, ab78078, Abcam) in 0.1% Tx/10% FBS-PBS overnight at 4°C. Subsequently, wells were rinsed several times in PBS before applying the fluorochrome-conjugated secondary antibody (ThermoScientific) in 0.1% Tx/10% FBS-PBS for 1h at room temperature. Neurons were finally washed in PBS, and DAPI was added prior to the microscopic analysis. Acquired confocal images were quantified by measuring the BIII-Tubulin fluorescent integrated density and normalized by the number of DAPI-positive nuclei.
# [4] = test system: mouse cortical neurons; experiment: NADPH/NADP+ levels in neurons (NADP/NADPH-Glo); format: cell-based; conditions: CI-inhibited neurons
# Protocol: as §1
# In standard experiments, we utilized Neurobasal medium with 25 mM D-glucose, 1 mM sodium pyruvate (ThermoFisher), B27 plus supplement (GIBCO), GlutaMax I 100X (GIBCO), and 1% penicillin/streptomycin (P/S). Starting from day 6 in vitro (DIV6), half of the medium was replaced every 3-4 days, omitting GlutaMax I.
# The NADP/NADP-Glo™ Assay (Promega) was employed to assess the NADP/NADPH ratio in cultured cells, following the manufacturer's instructions (Technical Bulletin Number TM400). This bioluminescent assay can detect both total oxidized and reduced nicotinamide adenine dinucleotide phosphates (NADP+ and NADPH) and determine their ratio.
# Cells were cultured in 24-well plates (Falcon®) at varying concentrations depending on the cell type and the specific experiment. After removing the media, we added 100 µl of PBS 1X per well and lysed the cells by introducing 100 µl of a base solution with 1% DTAB (1:1 ratio). […] Luminescence was measured using the CLARIOstar Plus plate reader from BMG LABTECH.
# [5] = uniformly labeled [13C]glucose, vs DMSO
compound,measurement,setting,value
"CC=C(C)C(O)C(C)C=C(C)C=CCC(C)=CCc1nc(OC)c(OC)c(O)c1C (stereo not shown) [Piericidin, Piericidin A]",PDH-dependent labeling of aspartate and malate,[1]; control and PC KO cells,clearly reduced
same,PC-mediated labeling of TCA cycle intermediates,[1]; particularly aspartate and malate,marked induction
same,"Malate M+3/M+2 ratio, higher",[1]; [5],~ 7 fold
same,"aspartate M+3/M+2 ratio, higher",[1]; [5],~ 10 fold
same,lactate secretion,"[2]; 5 mM glucose, trend, did not reach statistical significance",increased lactated secretion
same,levels of lactate,"[2]; limited glucose availability (2,5 mM), 100 nM, 16 h",preserving
same,lactate,"[2]; neurons cultured in 25 mM glucose, 100 nM, 16 h",significantly upregulation
same,neuron morphology,[3],significant morphological alterations
same,NADPH levels,"[4]; 100 nM, 24 h",marked drop
same,NADPH/NADP+ levels,"[4]; low glucose (2,5 mM)",rapid decline
